# Assay results reported in article PMC7098370 (Toxicological Sciences, 2020).
# Marks after values point to notes of the source that are not given here.
# What was measured:
# [1] = Plasma toxicokinetic study; assay type: in vivo, rat; details: for C max / K el / t 1/2: 300 mg test item/kg PO
# Crl:CD(SD) rats [2] = test: Subchronic 90-day oral RDT study with reproductive toxicity screening; assay type: in vivo, rat
# [3] = Bioelution in simulated gastric fluid; details: simulated gastric fluid pH 1.5, 2 h, 37°C
# Crl:CD(SD) rats [4] = test: Benchmark dose modeling; design: species or system rat; details: nonconstant variance
# [5] = Mass balance study: urinary and fecal Co excretion after single oral gavage; assay type: in vivo, rat; details: single oral bolus 300 mg/kg bw (220 mg Co/kg bw), 72 h
# [6] = Bioelution in simulated intestinal fluid; details: simulated intestinal fluid pH 7.4, 24 h
# Crl:CD(SD) rats [7] = test: Combined RDT study with reproduction/developmental toxicity screening test; assay type: in vivo, rat; details: for mean body weight of pups below the control: high dose
# rats = test: Acute oral toxicity testing; assay type: in vivo, rat
# [8] = females, 73.4 mg Co/kg bw/day, end of 90-day oral exposure, experimental group
# [9] = females, 220 mg Co/kg bw/day, end of 90-day oral exposure, experimental group
# [10] = females, 734 mg Co/kg bw/day, end of 90-day oral exposure, experimental group
# [11] = females, 734 mg Co/kg bw/day, recovery group, end of 28-day recovery period
# [12] = females, 734 mg Co/kg bw/day, recovery group, end of 90-day oral exposure
# [13] = males, 73.4 mg Co/kg bw/day, end of 90-day oral exposure, experimental group
# [14] = males, 220 mg Co/kg bw/day, end of 90-day oral exposure, experimental group
# [15] = males, 734 mg Co/kg bw/day, end of 90-day oral exposure, experimental group
# [16] = males, 734 mg Co/kg bw/day, recovery group, end of 28-day recovery period
# [17] = males, 734 mg Co/kg bw/day, recovery group, end of 90-day oral exposure
# [18] = female HGB dataset, Exponential 5 model
# [19] = male PLT dataset, Exponential 2 model
smiles,measurement,setting,value
"[O]=[Co].[O]=[Co][O][Co]=[O] [Co3O4, Tricobalt tetraoxide]",C max,[1]; females,1.10 ng/mL
same,K el,[1]; females,0.0430 h⁻¹
same,t 1/2,[1]; females,16.1 h
same,C max,[1]; males,2.08 ng/mL
same,K el,[1]; males,0.0402 h⁻¹
same,t 1/2,[1]; males,17.3 h
same,oral bioavailability,"[1]; single oral bolus, rats, males and females not distinguished",below 0.1%
same,premature deaths,"Crl:CD(SD) rats [2]; 90-day oral gavage, all doses",None of the animals died prematurely
same,LOAEL (systemic),"Crl:CD(SD) rats [2]; 90-day oral gavage, rats",734 mg Co/kg bw/day
same,NOAEL,"Crl:CD(SD) rats [2]; 90-day oral gavage, rats",220 mg Co/kg bw/day
same,NOAEL (reproductive),"Crl:CD(SD) rats [2]; 90-day oral gavage, rats",> 734 mg Co/kg bw/day
same,"HCT, %Diff vs control",Crl:CD(SD) rats [2]; [8],−0.6%
same,"HCT, mean",Crl:CD(SD) rats [2]; [8],44.76%
same,"HGB, %Diff vs control",Crl:CD(SD) rats [2]; [8],+0.2%
same,"HGB, mean",Crl:CD(SD) rats [2]; [8],9.51 mmol/L
same,"RBC, mean",Crl:CD(SD) rats [2]; [8],8.17 ×10E6/µl
same,"HCT, %Diff vs control",Crl:CD(SD) rats [2]; [9],+4.4%
same,"HCT, mean",Crl:CD(SD) rats [2]; [9],46.99%
same,"HGB, %Diff vs control",Crl:CD(SD) rats [2]; [9],+5.9%
same,"HGB, mean",Crl:CD(SD) rats [2]; [9],10.09 mmol/L
same,"RBC, %Diff vs control",Crl:CD(SD) rats [2]; [9],+5.6%
same,"RBC, mean",Crl:CD(SD) rats [2]; [9],8.74 ×10E6/µl
same,"HCT, %Diff vs control",Crl:CD(SD) rats [2]; [10],+13.9%
same,"HCT, mean",Crl:CD(SD) rats [2]; [10],51.27%
same,"HGB, %Diff vs control",Crl:CD(SD) rats [2]; [10],+16.4%
same,"HGB, mean",Crl:CD(SD) rats [2]; [10],11.09 mmol/L
same,"RBC, %Diff vs control",Crl:CD(SD) rats [2]; [10],+12.9%
same,"RBC, mean",Crl:CD(SD) rats [2]; [10],9.35 ×10E6/µl
same,"HCT, mean",Crl:CD(SD) rats [2]; [11],• 40.76 • .530%
same,"HGB, mean",Crl:CD(SD) rats [2]; [11],• 9.28 • .450 mmol/l
same,"RBC, mean",Crl:CD(SD) rats [2]; [11],• 7.56 • .573 ×10E6/µl
same,"HCT, mean",Crl:CD(SD) rats [2]; [12],• 50.76 ^* • .013%
same,"HGB, mean",Crl:CD(SD) rats [2]; [12],• 10.86 ^* • .032 mmol/l
same,"RBC, mean",Crl:CD(SD) rats [2]; [12],• 9.12 • .17 ×10E6/µl
same,"HCT, %Diff vs control",Crl:CD(SD) rats [2]; [13],+2.6%
same,"HCT, mean",Crl:CD(SD) rats [2]; [13],49.53%
same,"HGB, %Diff vs control",Crl:CD(SD) rats [2]; [13],+2.2%
same,"HGB, mean",Crl:CD(SD) rats [2]; [13],10.29 mmol/L
same,"PLT, %Diff vs control",Crl:CD(SD) rats [2]; [13],+4.2%
same,"PLT, mean",Crl:CD(SD) rats [2]; [13],896.5 ×10E3/µl
same,"RBC, %Diff vs control",Crl:CD(SD) rats [2]; [13],+1.1%
same,"RBC, mean",Crl:CD(SD) rats [2]; [13],9.30 ×10E6/µl
same,"HCT, %Diff vs control",Crl:CD(SD) rats [2]; [14],+9.2%
same,"HCT, mean",Crl:CD(SD) rats [2]; [14],52.73%
same,"HGB, %Diff vs control",Crl:CD(SD) rats [2]; [14],+9.5%
same,"HGB, mean",Crl:CD(SD) rats [2]; [14],11.03 mmol/L
same,"PLT, mean",Crl:CD(SD) rats [2]; [14],796.1 ×10E3/µl
same,"RBC, %Diff vs control",Crl:CD(SD) rats [2]; [14],+9.6%
same,"RBC, mean",Crl:CD(SD) rats [2]; [14],10.08 ×10E6/µl
same,"HCT, %Diff vs control",Crl:CD(SD) rats [2]; [15],+24.2%
same,"HCT, mean",Crl:CD(SD) rats [2]; [15],59.97%
same,"HGB, %Diff vs control",Crl:CD(SD) rats [2]; [15],+25.4%
same,"HGB, mean",Crl:CD(SD) rats [2]; [15],12.63 mmol/L
same,"PLT, mean",Crl:CD(SD) rats [2]; [15],573.9 ×10E3/µl
same,"RBC, %Diff vs control",Crl:CD(SD) rats [2]; [15],+22.7%
same,"RBC, mean",Crl:CD(SD) rats [2]; [15],11.29 ×10E6/µl
same,"HCT, mean",Crl:CD(SD) rats [2]; [16],• 50.38 • .126%
same,"HGB, mean",Crl:CD(SD) rats [2]; [16],• 10.82 • .075 mmol/l
same,"PLT, mean",Crl:CD(SD) rats [2]; [16],• 882.4 • .285 ×10E3/µl
same,"RBC, mean",Crl:CD(SD) rats [2]; [16],• 9.47 • .052 ×10E6/µl
same,"HCT, mean",Crl:CD(SD) rats [2]; [17],• 60.96** • 9.1E−06%
same,"HGB, mean",Crl:CD(SD) rats [2]; [17],• 12.78** • 2.4E−06 mmol/l
same,"PLT, mean",Crl:CD(SD) rats [2]; [17],• 645.6** • .0085 ×10E3/µl
same,"RBC, mean",Crl:CD(SD) rats [2]; [17],• 11.3** • 7.1E−05 ×10E6/µl
same,"Bioelution of Co in gastric fluid (% release), 2 h",[3],0.2 % release
same,"Bioelution of Co in gastric fluid / cobalt release (µg Co/g sample), 2 h",[3],1460 µg Co/g sample
same,BMD1STD,Crl:CD(SD) rats [4]; [18],210 mg Co/kg bw/day
same,BMDL1STD,Crl:CD(SD) rats [4]; [18],115 mg Co/kg bw/day
same,BMD1STD,Crl:CD(SD) rats [4]; [19],317 mg Co/kg bw/day
same,BMDL1STD,Crl:CD(SD) rats [4]; [19],219 mg Co/kg bw/day
same,Fecal Excretion (%),[5]; females,95.2 % of Co applied
same,Sum of Urinary and Fecal Excretion (%),[5]; females,95.3 % of Co applied
same,Urinary Excretion (%),[5]; females,0.12 % of Co applied
same,Fecal Excretion (%),[5]; males,116.4 % of Co applied
same,Sum of Urinary and Fecal Excretion (%),[5]; males,116.5 % of Co applied
same,Urinary Excretion (%),[5]; males,0.13 % of Co applied
same,Bioelution of Co in intestinal fluid (% release),[6],0.05 (24 h) % release
same,Bioelution of Co in intestinal fluid / cobalt release (µg Co/g sample),[6],385 (24 h) µg Co/g sample
same,food intake of dams reduced compared with the control,"Crl:CD(SD) rats [7]; 220 mg Co/kg bw/day, lactation day 1",30%
same,mean body weight of pups below the control,Crl:CD(SD) rats [7]; lactation day 0/1,up to 18%
same,mean body weight of pups below the control,Crl:CD(SD) rats [7]; lactation day 4,up to 21%
same,premature deaths,"Crl:CD(SD) rats [7]; oral gavage, all doses",None of the animals died prematurely
same,NOAEL (F0 generation),"Crl:CD(SD) rats [7]; oral gavage, rats",734 mg Co/kg bw/day
same,NOAEL (F1 generation),"Crl:CD(SD) rats [7]; oral gavage, rats",220 mg Co/kg bw/day
same,NOAEL (reproductive toxicity),"Crl:CD(SD) rats [7]; oral gavage, rats",> 734 mg test item/kg bw/day
same,Acute LD50 (mg Co/kg bw),rats; OECD 401 or 425,> 8076 mg Co/kg bw
same,Acute LD50 (mg substance/kg bw),rats; OECD 401 or 425,exceeding 11 000 mg substance/kg bw
same,Acute LD50 (mg substance/kg bw),"rats; OECD 401 or 425, listed as Tricobalt Tetraoxide",> 11 000 mg substance/kg bw
